Earlier results on one compound are cited in patent US10716959B2, “Polymer-flavonoid conjugates and hydrogels for biomedical applications” (AGENCY FOR SCIENCE, TECHNOLOGY AND RESEARCH, priority 2013, dated 2020).

The conditions of this series: physiological temperature and pH.

On to `O=C(O[C@@H]1Cc2c(O)cc(O)cc2O[C@@H]1c1cc(O)c(O)c(O)c1)c1cc(O)c(O)c(O)c1` [EGCG, (−)-epigallocatechin-3-gallate], for which the half-life result is “less than 30 min”.
